Values of other authors in article PMC6321136, “Combined In Vitro Studies and in Silico Target Fishing for the Evaluation of the Biological Activities of Diphylleia cymosa and Podophyllum hexandrum” (Molecules, 2018).

Key:
[1] = system: Agonist, peroxisome proliferator-activated receptor delta (PPARd); design: method as in PubChem Bioassay AID 743227; conditions: ref PubChem Bioassay AID 743227; cited from earlier work
[2] = system: 1-acylglycerol-3-phosphate O-acyltransferase ABHD5; design: method as in PubChem Bioassay AID 493027; conditions: ref PubChem Bioassay AID 493027; cited from earlier work
[3] = system: Antagonist, vitamin D receptor (VDR); design: method as in PubChem Bioassay AID 743242; conditions: ref PubChem Bioassay AID 743242; cited from earlier work
[4] = system: Antagonist, peroxisome proliferator-activated receptor gamma (PPARg); design: method as in PubChem Bioassay AID 743191; conditions: ref PubChem Bioassay AID 743191; cited from earlier work

For COc1cc([C@@H]2c3cc4c(cc3[C@H](O)[C@H]3COC(=O)[C@H]23)OCO4)cc(OC)c1OC [Podophyllotoxin, podophyllotoxin], the “Exper. Activity” value [1] is listed as “Inactive”, the “Exper. Activity” value [2] is listed as “Inactive” and the “Exper. Activity” value [3] is listed as “Active”. The “Exper. Activity” value [4] was “Inactive”.
